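Results reflect a 48-hour exposure of cells in 96-well plates to compound at five concentrations. TGI is the concentration that stops growth completely.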
Key:
Assay in all cases: growth of human tumour cells (NCI), 48 h
786-0 renal = system: 786-0 renal
A549 NSCLC = system: A549 NSCLC
ACHN renal = system: ACHN renal
BT-549 breast = system: BT-549 breast
CAKI-1 renal = system: CAKI-1 renal
CCRF-CEM leukemia = system: CCRF-CEM leukemia
COLO 205 colon = system: COLO 205 colon
DU-145 prostate = system: DU-145 prostate
EKVX NSCLC = system: EKVX NSCLC
HCC-2998 colon = system: HCC-2998 colon
HCT-116 colon = system: HCT-116 colon
HCT-15 colon = system: HCT-15 colon
HL-60(TB) leukemia = system: HL-60(TB) leukemia
HOP-62 NSCLC = system: HOP-62 NSCLC
HS 578T breast = system: HS 578T breast
HT29 colon = system: HT29 colon
IGROV1 ovarian = system: IGROV1 ovarian
K-562 leukemia = system: K-562 leukemia
KM12 colon = system: KM12 colon
LOX IMVI melanoma = system: LOX IMVI melanoma
M14 melanoma = system: M14 melanoma
MALME-3M melanoma = system: MALME-3M melanoma
MCF7 breast = system: MCF7 breast
MDA-MB-231 breast = system: MDA-MB-231 breast
MDA-MB-435 = system: MDA-MB-435
MDA-N = system: MDA-N
MOLT-4 leukemia = system: MOLT-4 leukemia
NCI-H226 lung = system: NCI-H226 lung
NCI-H23 lung = system: NCI-H23 lung
NCI-H460 lung = system: NCI-H460 lung
NCI-H522 lung = system: NCI-H522 lung
NCI/ADR-RES ovarian = system: NCI/ADR-RES ovarian
OVCAR-3 ovarian = system: OVCAR-3 ovarian
OVCAR-4 ovarian = system: OVCAR-4 ovarian
OVCAR-5 ovarian = system: OVCAR-5 ovarian
OVCAR-8 ovarian = system: OVCAR-8 ovarian
PC-3 prostate = system: PC-3 prostate
RXF 393 renal = system: RXF 393 renal
SF-268 CNS = system: SF-268 CNS
SF-295 CNS = system: SF-295 CNS
SF-539 CNS = system: SF-539 CNS
SK-MEL-2 melanoma = system: SK-MEL-2 melanoma
SK-MEL-28 melanoma = system: SK-MEL-28 melanoma
SK-MEL-5 melanoma = system: SK-MEL-5 melanoma
SK-OV-3 ovarian = system: SK-OV-3 ovarian
SN12C renal = system: SN12C renal
SNB-19 CNS = system: SNB-19 CNS
SNB-75 CNS = system: SNB-75 CNS
SR leukemia = system: SR leukemia
SW-620 colon = system: SW-620 colon
T-47D breast = system: T-47D breast
TK-10 renal = system: TK-10 renal
U251 CNS = system: U251 CNS
UACC-257 melanoma = system: UACC-257 melanoma
UACC-62 melanoma = system: UACC-62 melanoma
UO-31 renal = system: UO-31 renal
A498 renal = system: A498 renal
RPMI-8226 leukemia = system: RPMI-8226 leukemia

COC(=O)C(Cc1ccc(OC)cc1O)NC(=O)OC(C)(C)C (centres undefined) showed a TGI (786-0 renal) of over 100 µM, a TGI (A549 NSCLC) of over 100 µM and a TGI (ACHN renal) of over 100 µM. The TGI (BT-549 breast) was over 100 µM, the TGI (CAKI-1 renal) was over 100 µM and the TGI (CCRF-CEM leukemia) was over 100 µM. For the same molecule, the TGI (COLO 205 colon) was over 100 µM, the TGI (DU-145 prostate) was over 100 µM and the TGI (EKVX NSCLC) was over 100 µM. For the same molecule, the TGI (HCC-2998 colon) was over 100 µM, the TGI (HCT-116 colon) was over 100 µM and the TGI (HCT-15 colon) was over 100 µM. It also gave a TGI (HL-60(TB) leukemia) of over 100 µM, a TGI (HOP-62 NSCLC) of over 100 µM and a TGI (HS 578T breast) of over 100 µM. The TGI (HT29 colon) was over 100 µM, the TGI (IGROV1 ovarian) was over 100 µM and the TGI (K-562 leukemia) was over 100 µM. For the same molecule, the TGI (KM12 colon) was over 100 µM, the TGI (LOX IMVI melanoma) was over 100 µM and the TGI (M14 melanoma) was over 100 µM. For the same molecule, the TGI (MALME-3M melanoma) was over 100 µM, the TGI (MCF7 breast) was over 100 µM and the TGI (MDA-MB-231 breast) was over 100 µM. The TGI (MDA-MB-435) was over 100 µM, the TGI (MDA-N) was over 100 µM and the TGI (MOLT-4 leukemia) was over 100 µM. For the same molecule, the TGI (NCI-H226 lung) was over 100 µM, the TGI (NCI-H23 lung) was over 100 µM and the TGI (NCI-H460 lung) was over 100 µM. For the same molecule, the TGI (NCI-H522 lung) was over 100 µM, the TGI (NCI/ADR-RES ovarian) was over 100 µM and the TGI (OVCAR-3 ovarian) was over 100 µM. For the same molecule, the TGI (OVCAR-4 ovarian) was over 100 µM, the TGI (OVCAR-5 ovarian) was over 100 µM and the TGI (OVCAR-8 ovarian) was over 100 µM. The TGI (PC-3 prostate) was over 100 µM, the TGI (RXF 393 renal) was over 100 µM and the TGI (SF-268 CNS) was over 100 µM. The TGI (SF-295 CNS) was over 100 µM, the TGI (SF-539 CNS) was over 100 µM and the TGI (SK-MEL-2 melanoma) was over 100 µM. The TGI (SK-MEL-28 melanoma) was over 100 µM, the TGI (SK-MEL-5 melanoma) was over 100 µM and the TGI (SK-OV-3 ovarian) was over 100 µM. It also gave a TGI (SN12C renal) of over 100 µM, a TGI (SNB-19 CNS) of over 100 µM and a TGI (SNB-75 CNS) of over 100 µM. For the same molecule, the TGI (SR leukemia) was over 100 µM, the TGI (SW-620 colon) was over 100 µM and the TGI (T-47D breast) was over 100 µM. For the same molecule, the TGI (TK-10 renal) was over 100 µM, the TGI (U251 CNS) was over 100 µM and the TGI (UACC-257 melanoma) was 95 µM. It also gave a TGI (UACC-62 melanoma) of over 100 µM and a TGI (UO-31 renal) of over 100 µM.
Molecule Cc1nc2c(=O)[nH]ncc2[nH]1 has a TGI (786-0 renal) of over 100 µM, a TGI (A498 renal) of over 100 µM and a TGI (A549 NSCLC) of over 100 µM. It also gave a TGI (ACHN renal) of over 100 µM, a TGI (BT-549 breast) of over 100 µM and a TGI (CAKI-1 renal) of over 100 µM. It also gave a TGI (CCRF-CEM leukemia) of over 100 µM, a TGI (COLO 205 colon) of over 100 µM and a TGI (DU-145 prostate) of over 100 µM. It also gave a TGI (EKVX NSCLC) of over 100 µM, a TGI (HCT-116 colon) of over 100 µM and a TGI (HCT-15 colon) of over 100 µM. The TGI (HL-60(TB) leukemia) was over 100 µM, the TGI (HOP-62 NSCLC) was over 100 µM and the TGI (HS 578T breast) was over 100 µM. It also gave a TGI (HT29 colon) of over 100 µM, a TGI (IGROV1 ovarian) of over 100 µM and a TGI (K-562 leukemia) of over 100 µM. It also gave a TGI (KM12 colon) of over 100 µM, a TGI (M14 melanoma) of over 100 µM and a TGI (MCF7 breast) of over 100 µM. For the same molecule, the TGI (MDA-MB-231 breast) was over 100 µM, the TGI (MDA-MB-435) was over 100 µM and the TGI (MDA-N) was over 100 µM. For the same molecule, the TGI (MOLT-4 leukemia) was over 100 µM, the TGI (NCI-H226 lung) was over 100 µM and the TGI (NCI-H23 lung) was over 100 µM. The TGI (NCI-H460 lung) was over 100 µM, the TGI (NCI/ADR-RES ovarian) was over 100 µM and the TGI (OVCAR-3 ovarian) was over 100 µM. It also gave a TGI (OVCAR-5 ovarian) of over 100 µM, a TGI (OVCAR-8 ovarian) of over 100 µM and a TGI (PC-3 prostate) of over 100 µM. For the same molecule, the TGI (RPMI-8226 leukemia) was over 100 µM, the TGI (RXF 393 renal) was over 100 µM and the TGI (SF-268 CNS) was over 100 µM. It also gave a TGI (SF-295 CNS) of over 100 µM, a TGI (SF-539 CNS) of over 100 µM and a TGI (SK-MEL-2 melanoma) of over 100 µM. For the same molecule, the TGI (SK-MEL-28 melanoma) was over 100 µM, the TGI (SK-MEL-5 melanoma) was over 100 µM and the TGI (SN12C renal) was over 100 µM. It also gave a TGI (SNB-19 CNS) of over 100 µM, a TGI (SNB-75 CNS) of over 100 µM and a TGI (SR leukemia) of over 100 µM. The TGI (SW-620 colon) was over 100 µM, the TGI (T-47D breast) was over 100 µM and the TGI (TK-10 renal) was over 100 µM. The TGI (U251 CNS) was over 100 µM, the TGI (UACC-257 melanoma) was over 100 µM and the TGI (UACC-62 melanoma) was over 100 µM. For the same molecule, the TGI (UO-31 renal) was over 100 µM.
C=C(C)c1cc(C(C)(C)C)cc(C(=C)C)c1S(C)(=O)=O was tested, and the TGI (786-0 renal) was over 100 µM, the TGI (A498 renal) was over 100 µM and the TGI (A549 NSCLC) was over 100 µM. It also gave a TGI (ACHN renal) of over 100 µM, a TGI (BT-549 breast) of over 100 µM and a TGI (CAKI-1 renal) of over 100 µM. It also gave a TGI (CCRF-CEM leukemia) of over 100 µM, a TGI (COLO 205 colon) of over 100 µM and a TGI (DU-145 prostate) of over 100 µM. For the same molecule, the TGI (EKVX NSCLC) was over 100 µM, the TGI (HCC-2998 colon) was over 100 µM and the TGI (HCT-116 colon) was over 100 µM. For the same molecule, the TGI (HCT-15 colon) was over 100 µM, the TGI (HL-60(TB) leukemia) was over 100 µM and the TGI (HOP-62 NSCLC) was over 100 µM. For the same molecule, the TGI (HS 578T breast) was over 100 µM, the TGI (HT29 colon) was over 100 µM and the TGI (IGROV1 ovarian) was over 100 µM. For the same molecule, the TGI (K-562 leukemia) was over 100 µM, the TGI (KM12 colon) was over 100 µM and the TGI (LOX IMVI melanoma) was over 100 µM. It also gave a TGI (M14 melanoma) of over 100 µM, a TGI (MALME-3M melanoma) of over 100 µM and a TGI (MCF7 breast) of over 100 µM. For the same molecule, the TGI (MDA-MB-231 breast) was over 100 µM, the TGI (MDA-MB-435) was over 100 µM and the TGI (MDA-N) was over 100 µM. The TGI (MOLT-4 leukemia) was over 100 µM, the TGI (NCI-H226 lung) was over 100 µM and the TGI (NCI-H23 lung) was over 100 µM. It also gave a TGI (NCI-H460 lung) of over 100 µM, a TGI (NCI-H522 lung) of over 100 µM and a TGI (NCI/ADR-RES ovarian) of over 100 µM. It also gave a TGI (OVCAR-3 ovarian) of over 100 µM, a TGI (OVCAR-4 ovarian) of over 100 µM and a TGI (OVCAR-5 ovarian) of over 100 µM. It also gave a TGI (OVCAR-8 ovarian) of over 100 µM, a TGI (PC-3 prostate) of over 100 µM and a TGI (RPMI-8226 leukemia) of over 100 µM. It also gave a TGI (SF-268 CNS) of over 100 µM, a TGI (SF-295 CNS) of over 100 µM and a TGI (SF-539 CNS) of over 100 µM. It also gave a TGI (SK-MEL-2 melanoma) of over 100 µM, a TGI (SK-MEL-28 melanoma) of over 100 µM and a TGI (SK-MEL-5 melanoma) of over 100 µM. The TGI (SK-OV-3 ovarian) was over 100 µM, the TGI (SN12C renal) was over 100 µM and the TGI (SNB-19 CNS) was over 100 µM. It also gave a TGI (SNB-75 CNS) of over 100 µM, a TGI (SR leukemia) of over 100 µM and a TGI (SW-620 colon) of over 100 µM. It also gave a TGI (T-47D breast) of over 100 µM, a TGI (TK-10 renal) of over 100 µM and a TGI (U251 CNS) of over 100 µM. The TGI (UACC-62 melanoma) was over 100 µM and the TGI (UO-31 renal) was over 100 µM.
